Measured values published in paper PMC11133429, “Regiodivergent biosynthesis of bridged bicyclononanes” (Nature Communications, 2024).

How the values were obtained:
HsCPTa = tested on: T1, HsCPTa; experiment: HPLC prenyltransferase assay, yeast microsomes; type: biochemical, Hypericum sampsonii; conditions: optimum conditions, Mg2+, pH optimum 7
T1 construct: cDNA in pESC-URA (GAL1), S. cerevisiae INVSc1 microsomal fraction; no tag mentioned

HsCPTb = tested on: T2, HsCPTb; experiment: HPLC prenyltransferase assay, yeast microsomes; type: biochemical, Hypericum sampsonii; conditions: optimum conditions, Mg2+, pH optimum 10
T2 construct: cDNA in pESC-URA (GAL1), S. cerevisiae INVSc1 microsomal fraction; no tag mentioned

Km (HsCPTa; prenyl donor, acceptor not given) [µM]	Km (HsCPTb; prenyl donor, acceptor grandone (only one accepted)) [µM]	Km (HsCPTa; DMAPP saturation) [µM]	Km (HsCPTb; DMAPP saturation) [µM]	Structure (SMILES)
65.4 ± 6.63	298 ± 29.5	–	–	CC(C)=CCOP(=O)(O)OP(=O)(O)O [DMAPP]
–	–	106 ± 9.86	–	CC(C)=CCC1=C(O)C(CC=C(C)C)(CC=C(C)C)C(=O)C(C(=O)C(C)C)=C1O [colupulone]
–	–	62 ± 10.1	40.4 ± 5.06	CC(C)=CCC1=C(O)C(CC=C(C)C)(CC=C(C)C)C(=O)C(C(=O)c2ccccc2)=C1O [compound 1, grandone]
–	–	114 ± 20	–	CC(C)=CCC/C(C)=C/C[C@]1(CC=C(C)C)C(=O)C(CC=C(C)C)=C(O)/C(=C(\O)c2ccccc2)C1=O [compound 2, kolanone]
